Paper PMC12351953, “SCAN-ACT: adoptive T cell therapy target discovery through single-cell transcriptomics” (Genome Medicine, 2025)

Target: HLA-A*02:01 (Homo sapiens, UniProt P04439, D140Y/D185E/D98H/E176V/E277Q/G131W/G231S/I119V/I121R/I166T/I218V/L300P/L318F/N151K/N90K/P208A/P217A/Q86G/Q94H/R138H/R169H/T345S)
Assay: IMMUNE on-yeast peptide competition against biotinylated indicator peptide
Assay type: binding
Conditions: yeast-displayed HLA, 0.5 µM biotinylated indicator peptide (Bio-KLT), 20-fold more concentrated test peptide, overnight to equilibrium, flow cytometry
Source text: To construct plasmids driving the expression of non-covalent HLA-I heterodimers, the commercially available backbone vector pRS315 was modified. Briefly, the entire expression cassette containing genes encoding the Aga2 leader sequence, the ectodomain of a particular HLA-I heavy chain allele (A*02:01 or A*11:01 or B*35:01 or C*12:03), the Aga2p yeast native protein subunit, an HA epitope tag, and the MFα terminator was cloned to the downstream of the GAL10 promoter in pRS315, so that the expressed HLA-I heavy chain ectodomain was fused to the N-terminus of Aga2p for yeast surface display. […]
A sufficient amount of galactose-induced yeast cells was collected by centrifugation and labeled by primary antibodies in PBS + 0.5% bovine serum albumin (BSA) for 1 h on ice. […] FL1 and FL4 fluorescence channels were selected for Alexa Fluor 488 and Alexa Fluor 647, respectively, according to the fluorophore selected at the secondary labeling step as mentioned above. […]
To design indicator peptides appropriate for evaluation of HLA peptide binding on the surface of yeast cells and for downstream competitive assay development, the reported epitope repertoire for each aforementioned HLA allele from the Immune Epitope Database was carefully analyzed. […]

binding to A*02:01 (IMMUNE): bound
Sequence: RLHRIIPKI [test peptide from SSX1 (printed SSXI), pMHC target identified through PS-TRACT]
